Assay results reported in patent US12103924B2, “Mitogen-activated protein kinase kinase (MEK) degradation compounds and methods of use” (Icahn School of Medicine at Mount Sinai, priority 2020, dated 2024).

What was measured:
HT-29 cells = test: WST-8 cell viability assay, HT-29; assay type: cell-based
Protocol: (§1) Cells were fixed and stained by crystal violet.
(§2) Cells (2000 cells per well) were seeded into 96-well microplates. After 20 h, cells were treated with 0.1% DMSO or indicated serial dilutions of compounds in duplicate or triplicate for 3 days. Cell viability was tested using MTT (M6494, Thermo Fisher Scientific) or WST-8 reagent (CK04, Dojindo). Briefly, 12 mM MTT was prepared in PBS or WST-8 reagent was warmed up to room temperature. 20 μL MTT or CCK-8 was then added to each well and the plates were kept in incubator at 37° C. for 3 h in the dark. For the WST-8 assay, signal was obtained after the incubation. For the MTT assay, cell medium was replaced with 200 μL of DMSO after the incubation, and then cell plates were kept at 37° C. for another 30 min. Absorbance signals for MTT and WST-8 were read at 540 nm and 450 nm respectively, with 690 nm as reference performed with Infinite F PLEX plate reader (TECAN, Morrisville, NC, USA). GI50 values were analyzed using GraphPad Prism 8 from the data of at least three independent experiments.

SK-MEL-28 cells = test: WST-8 cell viability assay, SK-MEL-28; assay type: cell-based
Protocol: as §1, §2

H3122 cells = test: WST-8 cell viability assay, H3122; assay type: cell-based; details: WST-8, 3 d
Protocol: as §2

SUDHL1 cells = test: WST-8 cell viability assay, SUDHL1; assay type: cell-based; details: WST-8, 3 d
Protocol: as §2

MEK1/2 [1] = test: Western blot of MEK1/2 protein levels in HT-29 cells; assay type: cell-based; details: HT-29 cells; for MEK1 and MEK2 protein levels, time-dependent: 0.1 μM or 0.3 μM, harvested at indicated time points
Protocol: Compound concentrations are 0.3 μM, 1 μM and 3 μM.
(§3) The indicated protein levels were determined by Western blots.
(§4) The sample was centrifuged at 12,000 g for 10 min at 4° C. to get supernatant as cell lysate. Protein concentrations were quantified using Pierce rapid gold BCA protein assay kit.

pMEK and pERK [2] = test: Western blot of MEK and ERK phosphorylation in HT-29 cells; assay type: cell-based; details: HT-29 cells; for phosphorylation of MEK and ERK / pERK signaling, time-dependent: 0.1 μM or 0.3 μM, harvested at indicated time points
MEK1/2 [3] = test: Western blot of MEK1/2 protein levels in SK-MEL-28 cells; details: SK-MEL-28 cells; for MEK1 and MEK2 protein levels, time-dependent: 0.1 μM or 0.3 μM, harvested at indicated time points
Protocol: as §3, §4

pMEK and pERK [4] = test: Western blot of MEK and ERK phosphorylation in SK-MEL-28 cells; details: SK-MEL-28 cells; for phosphorylation of MEK and ERK / pERK signaling, time-dependent: 0.1 μM or 0.3 μM, harvested at indicated time points
MEK1 and MEK2 proteins = test: Global proteome analysis of HT-29 cells; assay type: cell-based, human; details: 8 h, 0.1 μM CPD-038 or CPD-052, 0.3 μM CPD-051 or CPD-097, versus 0.1% DMSO
Protocol: […] […] P values were calculated from the data of two technical replicates. (A) DMSO compared to CPD-031 treated samples; (B) CPD-034 compared to CPD-031 treated samples; (C) DMSO compared to CPD-034 treated samples.
Proteins outside the significance lines were labeled with pink or purple color (FDR=0.05, S0=1). P values were calculated from the data of two technical replicates.
Protein Extraction and Digestion. Cells with indicated treatments were harvested and lysed in lysis buffer (6 M guanidine hydrochloride, 100 mM Tris-HCl pH 8.0). Sonication (5 s on, 5 s off, 2×30 s) was performed to shear genome DNA. Lysate were centrifugated for 30 min at 3,500 g at 4° C. and the supernatant were transferred to a clean tube, diluted 50% with Milli-Q H2O, then precipitated by addition of cold acetone (four times the original volume), and placed at −20° C. overnight. Precipitated proteins were brought down at 20,000 g at 4° C. for 10 min, and washed with cold acetone after discarding the supernatant. The pellet was air-dried at RT for 5 min and solubilized with 50 mM Tris-HCl (PH 8.0), 8 M urea. Protein concentration was determined (BCA assay) and protein was reduced with 5 mM DTT (dithiothreitol), alkylated with 15 mM IAA (iodoacetamide) in the dark, then diluted with buffer 25 mM Tris (pH 8.0) and 1 mM CaCl2 (three times the original volume). The final urea concentration is 2 M. Trypsin was added into protein solution with 1:100 ratio (trypsin:protein), and digested 12-16 h or overnight at RT.
Mass Spectrometry Analysis. Peptides were cleaned up by C18 stage tips and the concentration was determined (Peptide assay, 23275, Thermo Fisher Scientific). The clean peptides were dissolved in 0.1% formic acid and analyzed on a Q-Exactive HF-X coupled with an Easy nanoLC 1200 (Thermo Fisher Scientific, San Jose, CA). 0.5 μg of peptides were loaded onto an Acclain PepMap RSLC C18 Column (250 mm×75 μm ID, C18, 2 μm, Thermo Fisher Scientific). […] A linear gradient of 5 to 30% buffer B over 110 min was executed at a 300 nl/min flow rate followed a ramp to 100% B in 5 min, and 15-min wash with 100% B, where buffer A was aqueous 0.1% formic acid, and buffer B was 80% acetonitrile and 0.1% formic acid.
LC-MS experiments were performed in a data-dependent mode with full MS (externally calibrated to a mass accuracy of <5 ppm and a resolution of 60,000 at m/z 200) followed by high energy collision-activated dissociation-MS/MS of the top 20 most intense ions with a resolution of 15,000 at m/z 200. High energy collision-activated dissociation-MS/MS was used to dissociate peptides at a normalized collision energy of 27 eV in the presence of nitrogen bath gas atoms. Dynamic exclusion was 30.0 seconds. Each sample was subjected to two technical LC-MS replicates.
MS Data Analysis. Mass spectra processing and peptide identification were performed on the Andromeda search engine in MaxQuant software (Version 1.6.0.16) against the human UniProt database (UP000005640). All searches were conducted with a defined modification of cysteine carbamidomethylation, with methionine oxidation and protein amino-terminal acetylation as dynamic modifications. Peptides were confidently identified using a target-decoy approach with a peptide false discovery rate (FDR) of 1% and a protein FDR of 1%. A minimum peptide length of 7 amino acids was required, maximally two missed cleavages were allowed, initial mass deviation for precursor ion was up to 7 ppm, and the maximum allowed mass deviation for fragment ions was 0.5 Da. Data processing and statistical analysis were performed on Perseus (Version 1.6.0.7). Protein quantitation was performed on duplicate runs, and a two-sample t-test statistics was used to report statistically significant expression fold-changes.

[5] = serial dilution, 24 h, western blot

Cc1ncsc1-c1ccc([C@H](C)NC(=O)[C@@H]2C[C@@H](O)CN2C(=O)[C@@H](NC(=O)CCCCCCCCCCN(C)CCCONC(=O)c2ccc(F)c(F)c2Nc2ccc(I)cc2F)C(C)(C)C)cc1 [CPD-037, (2S,4R)-1-((S)-20-(tert-butyl)-1-(3,4-difluoro-2-((2-fluoro-4-iodophenyl)amino)phenyl)-7-methyl-1,18-dioxo-3-oxa-2,7,19-triazahenicosan-21-oyl)-4-hydroxy-N—((S)-1-(4-(4-methylthiazol-5-yl)phenyl)ethyl)pyrrolidine-2-carboxamide]
growth of cells (HT-29 cells; WST-8 3 d serial dilutions, clonogenic assay 10 d): significantly suppressed
growth inhibition compared with AZ compound (HT-29 cells; WST-8, 3 d): more potent
growth of cells (SK-MEL-28 cells; WST-8 3 d serial dilutions): significantly suppressed
growth inhibition compared with AZ compound (SK-MEL-28 cells; WST-8, 3 d): more potent
growth inhibition compared with AZ compound (H3122 cells): more potent
growth inhibition compared with AZ compound (SUDHL1 cells): more potent
MEK1 and MEK2 protein levels, time-dependent (MEK1/2 [1]): degrade
MEK1 and MEK2 protein levels, concentration-dependent (MEK1/2 [1]; [5]): degrade
phosphorylation of MEK and ERK / pERK signaling, time-dependent (pMEK and pERK [2]): inhibit
phosphorylation of MEK and ERK proteins, concentration-dependent (pMEK and pERK [2]; [5]): inhibit
MEK1 and MEK2 protein levels, time-dependent (MEK1/2 [3]): degrade
MEK1 and MEK2 protein levels, concentration-dependent (MEK1/2 [3]; [5]): degrade
phosphorylation of MEK and ERK / pERK signaling, time-dependent (pMEK and pERK [4]): inhibit
phosphorylation of MEK and ERK proteins, concentration-dependent (pMEK and pERK [4]; [5]): inhibit

Cc1ncsc1-c1ccc([C@H](C)NC(=O)[C@@H]2C[C@@H](O)CN2C(=O)[C@@H](NC(=O)CCCCCCCCCCCNCCCCONC(=O)c2ccc(F)c(F)c2Nc2ccc(I)cc2F)C(C)(C)C)cc1 [CPD-038, (2S,4R)-1-((S)-22-(tert-butyl)-1-(3,4-difluoro-2-((2-fluoro-4-iodophenyl)amino)phenyl)-1,20-dioxo-3-oxa-2,8,21-triazatricosan-23-oyl)-4-hydroxy-N—((S)-1-(4-(4-methylthiazol-5-yl)phenyl)ethyl)pyrrolidine-2-carboxamide]
growth inhibition compared with AZ compound (H3122 cells): more potent
growth inhibition compared with AZ compound (SUDHL1 cells): more potent
MEK1 and MEK2 protein levels, time-dependent (MEK1/2 [1]): degrade
phosphorylation of MEK and ERK / pERK signaling, time-dependent (pMEK and pERK [2]): inhibit
protein levels in the global proteomic study (MEK1 and MEK2 proteins): selectively degraded
MEK1 and MEK2 protein levels, time-dependent (MEK1/2 [3]): degrade
phosphorylation of MEK and ERK / pERK signaling, time-dependent (pMEK and pERK [4]): inhibit
